Laboratory results reported in ChEMBL document CHEMBL1201862, “PubChem BioAssay data set” (2004).
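Dose response: 5 concentrations. Exposure: 48 h. Format: 96-well plates. Endpoint: linear interpolation; highest concentration if not reached. Abbreviation: GI50, concentration required for 50% inhibition of growth.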 Activity calls are given as the source filed them. Cut-off read from the data, not from the text of the source: active = GI50 up to about 1.1 µM and inactive = higher.

Experiments:
Experiment in all cases: NCI anticancer screen, dose series, 48 h
A498 = system: A498
ACHN = system: ACHN
CAKI-1 = system: CAKI-1
HCT-15 = system: HCT-15
LOX IMVI = system: LOX IMVI
M14 = system: M14
MDA-MB-231 = system: MDA-MB-231
PC-3 = system: PC-3
RXF 393 = system: RXF 393
SF-295 = system: SF-295
SK-MEL-2 = system: SK-MEL-2
SR = system: SR
U-251 = system: U-251
UACC-257 = system: UACC-257
A549 = system: A549
K562 = system: K562
RPMI-8226 = system: RPMI-8226
SK-MEL-5 = system: SK-MEL-5
SNB-19 = system: SNB-19
T47D = system: T47D

| SMILES | GI50 (A498) | GI50 (ACHN) | GI50 (CAKI-1) | GI50 (HCT-15) | GI50 (LOX IMVI) | GI50 (M14) | GI50 (MDA-MB-231) | GI50 (PC-3) | GI50 (RXF 393) | GI50 (SF-295) | GI50 (SK-MEL-2) | GI50 (SR) | GI50 (U-251) | GI50 (UACC-257) | GI50 (A549) | GI50 (K562) | GI50 (RPMI-8226) | GI50 (SK-MEL-5) | GI50 (SNB-19) | GI50 (T47D) |
| --- | --- | --- | --- | --- | --- | --- | --- | --- | --- | --- | --- | --- | --- | --- | --- | --- | --- | --- | --- | --- |
| O=c1[nH]c2ccc(CC(=S)N3CCOCC3)cc2o1 | > 100 µM (inactive) | > 100 µM (inactive) | > 100 µM (inactive) | > 100 µM | > 100 µM (inactive) | > 100 µM (inactive) | > 100 µM (inactive) | > 100 µM (inactive) | > 100 µM (inactive) | > 100 µM (inactive) | > 100 µM (inactive) | 56.6 µM (inactive) | > 100 µM (inactive) | > 100 µM (inactive) |  |  |  |  |  |  |
| CN(C)CCn1nc(N)c2nc3cc(C(F)(F)F)ccc3nc21 | > 100 µM (inactive) | > 100 µM (inactive) | 90.2 µM (inactive) | 67.3 µM | 54.8 µM (inactive) | > 100 µM (inactive) | > 100 µM (inactive) | > 100 µM (inactive) | 26.4 µM (inactive) | > 100 µM (inactive) | > 100 µM (inactive) | > 100 µM (inactive) | > 100 µM (inactive) | > 100 µM (inactive) | 58.2 µM (inactive) | > 100 µM (inactive) | > 100 µM (inactive) | > 100 µM (inactive) | > 100 µM (inactive) |  |
| CC(C)(O)/C=C\P(=O)(O)O |  | > 100 µM (inactive) | > 100 µM (inactive) | > 100 µM | > 100 µM (inactive) | > 100 µM (inactive) |  | > 100 µM (inactive) | > 100 µM (inactive) | > 100 µM (inactive) | > 100 µM (inactive) | > 100 µM (inactive) | > 100 µM (inactive) | > 100 µM (inactive) | > 100 µM (inactive) | > 100 µM (inactive) |  | > 100 µM (inactive) | > 100 µM (inactive) | 7.1 µM (inactive) |
| C=C(C)[C@H]1C2=CC(C(=O)OC)=C(C[C@H](C(=C)C)[C@@H](O)[C@@H](O)C3=C[C@H]1OC3=O)O2 | > 100 µM (inactive) | > 100 µM (inactive) | > 100 µM (inactive) | 59.8 µM | > 100 µM (inactive) | > 100 µM (inactive) | > 100 µM (inactive) |  | > 100 µM (inactive) | > 100 µM (inactive) | > 100 µM (inactive) |  | > 100 µM (inactive) | > 100 µM (inactive) | > 100 µM (inactive) | > 100 µM (inactive) | > 100 µM (inactive) | > 100 µM (inactive) | > 100 µM (inactive) | > 100 µM (inactive) |
| CSC(SC)=C1C(=O)N(c2ccccc2)N=C1C | 29.4 µM (inactive) | 27.4 µM (inactive) | 29 µM (inactive) | 24.1 µM | 34 µM (inactive) | 20.6 µM (inactive) | 33.8 µM (inactive) | 28.1 µM (inactive) | 25 µM (inactive) | 25.9 µM (inactive) | 20 µM (inactive) |  | 35.1 µM (inactive) | 27.4 µM (inactive) | 30.8 µM (inactive) | 27.1 µM (inactive) |  | 10.3 µM (inactive) | 30.9 µM (inactive) |  |
| CSC1(CC(=O)N2CCCCC2)C(=O)Nc2ccccc21 (centres undefined) | > 100 µM (inactive) | > 100 µM (inactive) |  | > 100 µM | > 100 µM (inactive) | > 100 µM (inactive) |  | > 100 µM (inactive) |  | > 100 µM (inactive) | > 100 µM (inactive) |  | > 100 µM (inactive) | > 100 µM (inactive) | > 100 µM (inactive) | > 100 µM (inactive) | > 100 µM (inactive) | > 100 µM (inactive) | > 100 µM (inactive) | > 100 µM (inactive) |
| Nc1ccc2c(c1)N(C(=O)c1cc3cc(NC(=O)c4cc5ccccc5o4)ccc3[nH]1)CC2CCl (centres undefined) | 0.16 µM (active) | 0.0199 µM (active) | 0.0338 µM (active) | 0.0847 µM | 0.0398 µM (active) | 0.12 µM (active) | 0.239 µM (active) | 0.0671 µM (active) | 0.018 µM (active) | 0.0434 µM (active) | 0.0755 µM (active) |  | 0.106 µM (active) | 0.113 µM (active) | 0.0299 µM (active) | 0.0662 µM (active) | 0.0284 µM (active) | 0.0397 µM (active) | 0.277 µM (active) | 0.114 µM (active) |
| Cc1c(C#N)c2ccccc2c2nc3ccccc3n12 | > 100 µM (inactive) | 64.1 µM (inactive) | 67.9 µM (inactive) | > 100 µM | 34.4 µM (inactive) |  | 20.6 µM (inactive) | > 100 µM (inactive) | > 100 µM (inactive) | > 100 µM (inactive) | > 100 µM (inactive) | > 10 µM (inactive) | > 100 µM (inactive) | > 100 µM (inactive) | 93.1 µM (inactive) | > 100 µM (inactive) | > 100 µM (inactive) | 5.82 µM (inactive) | > 100 µM (inactive) |  |
| CC(=O)N1CC(C)(C)c2c1cc(C)c(O)c2C | > 100 µM (inactive) | > 100 µM (inactive) |  | > 100 µM | > 100 µM (inactive) | > 100 µM (inactive) | > 100 µM (inactive) | > 100 µM (inactive) | > 100 µM (inactive) | > 100 µM (inactive) | > 100 µM (inactive) |  | > 100 µM (inactive) | > 100 µM (inactive) | > 100 µM (inactive) | > 100 µM (inactive) | > 100 µM (inactive) | > 100 µM (inactive) | > 100 µM (inactive) | > 100 µM (inactive) |
| CN(CCc1ccc(N)cc1)[C@H]1CCCC[C@H]1N1CCCC1 | > 100 µM (inactive) | > 100 µM (inactive) | > 100 µM (inactive) | > 100 µM | > 100 µM (inactive) | > 100 µM (inactive) | > 100 µM (inactive) | > 100 µM (inactive) | > 100 µM (inactive) | > 100 µM (inactive) | > 100 µM (inactive) |  | > 100 µM (inactive) | > 100 µM (inactive) | > 100 µM (inactive) | 70.3 µM (inactive) | 66.7 µM (inactive) | > 100 µM (inactive) | > 100 µM (inactive) | > 100 µM (inactive) |
| Cn1c(S)nnc1CNc1ccc(-c2nnc(S)n2C)cc1 |  | > 100 µM (inactive) | > 100 µM (inactive) | > 100 µM | > 100 µM (inactive) | > 100 µM (inactive) | > 100 µM (inactive) | > 100 µM (inactive) |  | > 100 µM (inactive) | > 100 µM (inactive) |  | > 100 µM (inactive) | > 100 µM (inactive) | > 100 µM (inactive) | > 100 µM (inactive) |  | > 100 µM (inactive) | > 100 µM (inactive) |  |
| COC(=O)C1CCC(=O)N1CN(C(C)=O)c1cccc(O)c1 (centres undefined) | > 100 µM (inactive) | > 100 µM (inactive) | > 100 µM (inactive) | > 100 µM | > 100 µM (inactive) | > 100 µM (inactive) | > 100 µM (inactive) | > 100 µM (inactive) | > 100 µM (inactive) | > 100 µM (inactive) | > 100 µM (inactive) |  | > 100 µM (inactive) | > 100 µM (inactive) | > 100 µM (inactive) | > 100 µM (inactive) | > 100 µM (inactive) | > 100 µM (inactive) | > 100 µM (inactive) | > 100 µM (inactive) |
| COc1cc(C(c2ccc3c(c2)OCO3)N2C(=O)CCC2C(=O)O)cc(OC)c1OC (centres undefined) | > 100 µM (inactive) | > 100 µM (inactive) | > 100 µM (inactive) | > 100 µM | > 100 µM (inactive) | > 100 µM (inactive) | > 100 µM (inactive) | > 100 µM (inactive) |  | > 100 µM (inactive) | > 100 µM (inactive) |  | > 100 µM (inactive) | > 100 µM (inactive) | > 100 µM (inactive) | > 100 µM (inactive) | > 100 µM (inactive) | > 100 µM (inactive) | > 100 µM (inactive) | > 100 µM (inactive) |
| CN(Cc1ccccc1)c1nc(=[N+](C)C)ss1 | 99.5 µM (inactive) | > 100 µM (inactive) | > 100 µM (inactive) | > 100 µM | 36.8 µM (inactive) | > 100 µM (inactive) |  |  | > 100 µM (inactive) | > 100 µM (inactive) | 25.9 µM (inactive) | 44.2 µM (inactive) | 40.8 µM (inactive) | 56.5 µM (inactive) | 33.2 µM (inactive) | 23.4 µM (inactive) | 28.3 µM (inactive) | 58.6 µM (inactive) | 86.5 µM (inactive) |  |
| CNC(=O)C(NC(=O)[C@H](CC(C)C)NC(=O)[C@@H](S)CCN1C(=O)N(C)C(C)(C)C1=O)C(C)(C)C (some centres undefined) | > 100 µM (inactive) | > 100 µM (inactive) | > 100 µM (inactive) | > 100 µM | 2.91 µM (inactive) | > 100 µM (inactive) |  | > 100 µM (inactive) | > 100 µM (inactive) | > 100 µM (inactive) | > 100 µM (inactive) | > 100 µM (inactive) |  | > 100 µM (inactive) | > 100 µM (inactive) | 79.6 µM (inactive) | > 100 µM (inactive) | > 100 µM (inactive) | > 100 µM (inactive) | > 100 µM (inactive) |
| Nc1c(-c2ccccc2-c2c(N)[n+]([O-])c3ccccc3[n+]2[O-])[n+]([O-])c2ccccc2[n+]1[O-] | 20.8 µM (inactive) | 8.32 µM (inactive) | 33.5 µM (inactive) | 5.28 µM | 8.83 µM (inactive) | 12.2 µM (inactive) |  |  | 30.3 µM (inactive) | 12.9 µM (inactive) | 34.8 µM (inactive) | 4.3 µM (inactive) | 5.46 µM (inactive) | 7.45 µM (inactive) | 11.4 µM (inactive) | 5.74 µM (inactive) | 4.73 µM (inactive) | 10.7 µM (inactive) | 7.91 µM (inactive) |  |
